From patent publication US9814241B2

How the values were obtained:
[1] = test system: Alternaria solani; experiment: Alternaria test (tomatoes)/preventive; format: in vivo; details: preventive, evaluated 3 days after inoculation
[2] = test system: Venturia inaequalis; experiment: Venturia test (apples)/preventive; details: preventive, 100 ppm a.i., evaluated 10 days after inoculation
Protocol: After the spray coating has dried on, the plants are inoculated with an aqueous conidia suspension of the causal agent of apple scab (Venturia inaequalis) and then remain for 1 day in an incubation cabinet at approximately 20° C. and a relative atmospheric humidity of 100%.
The plants are then placed in a greenhouse at approximately 21° C. and a relative atmospheric humidity of approximately 90%.
The test is evaluated 10 days after the inoculation.

[3] = test system: Sphaerotheca fuliginea; experiment: Sphaerotheca test (cucumbers)/preventive; details: preventive, 100 ppm a.i., evaluated 7 days after inoculation
Protocol: After the spray coating has dried on, the plants are inoculated with an aqueous spore suspension of Sphaerotheca fuliginea. The plants are then placed in a greenhouse at approximately 23° C. and a relative atmospheric humidity of approximately 70%.
The test is evaluated 7 days after the inoculation.

N#Cc1ccccc1NC(=O)c1snc(Cl)c1Cl [F187, isotianil]
Efficacy in % Found ([1]; Table C1, tomatoes, 50 ppm a.i.): 36% | Efficacy in % Found [2]: 0% | Efficacy in % Found [3]: 0%

Cc1cc(C(F)(F)F)nn1CC(=O)N1CCC(c2nc(C3=NOC(c4c(F)cccc4F)C3)cs2)CC1 (stereo not drawn) [F315, 1-(4-{4-[5-(2,6-difluorophenyl)-4,5-dihydro-1,2-oxazol-3-yl]-1,3-thiazol-2-yl}piperidin-1-yl)-2-[5-methyl-3-(trifluoromethyl)-1H-pyrazol-1-yl]ethanone]
Efficacy in % Found ([1]; Table C1, tomatoes, 100 ppm a.i.): 0%

fosetyl-aluminium [F281]
Efficacy in % Found ([1]; Table C2, tomatoes, 100 ppm a.i.): 0%

phosphorous acid and its salts [F298]
Efficacy in % Found ([1]; Table C2, tomatoes, 400 ppm a.i.): 35%
